Assay results: patent publication US20030215564A1, “Method and apparatus for coating an endoprosthesis” (priority 2002, published 2003)

Key:
Assay type in all cases: physicochemical
[1] = Amount of paclitaxel deposited on Palmaz-Schatz stents, manual coating method (HPLC)
Experimental: In this example, Palmaz-Schatz stents were coated with paclitaxel using a manual method. The amount of paclitaxel deposited was then determined.
Each stent was then removed from the reservoir, shaken briskly, and allowed to dry. […] The solvent system consisted of 45% acetonitrile and 55% water delivered by a pair of Gilson 305/306 pumps with a flow rate of 1.5 ml/minute.

[2] = Effect of crimping on amount of paclitaxel on manually coated stents (HPLC); details: manual coating, after crimping
From the text: Prior to being deployed inside a blood vessel, some vascular stents must be crimped onto a balloon-tipped catheter. Once the stent is positioned on the catheter, the catheter-stent assembly is advanced in the blood vessel to the site of obstruction. The balloon is then expanded, which deploys the stent in its proper position.
Since the manual coating method leads to uneven, fragile coating (see Examples 1-3), it seemed likely that the process of crimping would exacerbate the problem of flaking and drug loss. To demontstrate this problem, the amount of paclitaxel on stents before and after crimping was determined. […] Each stent was then removed from the reservoir, shaken briskly, and allowed to dry.

[3] = Effect of crimping on amount of paclitaxel on spin-coated stents (HPLC)
From the text: Each stent was then removed from the reservoir, shaken briskly, and allowed to dry.

[4] = Effect of stent expansion on paclitaxel content of spin-coated stents (HPLC); details: spin-coated 12,000 RPM two seconds, 44 mg/ml ethanolic paclitaxel
From the text: After a stent is crimped onto a catheter as in example 4, it is ready for deployment in the body. The stent is properly positioned with a catheter, and is then expanded, for example by inflation of a balloon tip around which the stent is mounted. The balloon inflation expands the stent and forces it into proper position in the wall of the hollow organ. This has an additional physical impact on the stent, and has the potential to further degrade its coating.

Amount of drug deposited (mean ± standard deviation) ([1]; paclitaxel 13 mg/ml in 95% ethanol): 19.5 ± 7.7 µg
Amount of drug deposited (mean ± standard deviation) ([1]; paclitaxel 27 mg/ml in 95% ethanol): 59.8 ± 17.6 µg
Amount of drug deposited (mean ± standard deviation) ([1]; paclitaxel 37 mg/ml in 95% ethanol): 80.4 ± 27.7 µg
Amount of drug deposited (mean ± standard deviation) ([1]; paclitaxel 42 mg/ml in 95% ethanol): 141.3 ± 43.0 µg
Amount of drug deposited (mean ± standard deviation) ([1]; paclitaxel 66 mg/ml in 95% ethanol): 198.3 ± 72.0 µg
Amount of drug—crimped (mean ± standard deviation) ([2]; paclitaxel 37 mg/ml): 57.9 ± 33.0 µg
Amount of drug—crimped (mean ± standard deviation) ([2]; paclitaxel 42 mg/ml): 127.1 ± 34.6 µg
Amount of drug—crimped (mean ± standard deviation) ([2]; paclitaxel 66 mg/ml): 106.3 ± 53.8 µg
Amount of drug—crimped (mean ± standard deviation) ([3]; paclitaxel 18 mg/ml): 6.4 ± 2.1 µg
Amount of drug—crimped (mean ± standard deviation) ([3]; paclitaxel 28 mg/ml): 12.6 ± 1.2 µg
paclitaxel amount, expanded stent ([4]; crimp-mounted, expanded in water): 26.9 µg
mean paclitaxel amount, unexpanded stents ([4]; unexpanded): 32.8±5.9 μg/stent
Compound: CC(=O)O[C@H]1C(=O)[C@@]2(C)[C@H]([C@H](OC(=O)c3ccccc3)[C@]3(O)C[C@H](OC(=O)[C@H](O)[C@@H](NC(=O)c4ccccc4)c4ccccc4)C(C)=C1C3(C)C)[C@]1(OC(C)=O)CO[C@@H]1C[C@@H]2O [Paclitaxel, paclitaxel]
